These results are taken from patent US20200360322A1, “FORMULATIONS AND DOSAGE FORMS FOR ENHANCING PERFORMANCE OR RECOVERY FROM STRESS” (ACTIVATE BIO PHYSICS CORP., priority 2017, published 2020).

The conditions of experiment [1]: four- to seven-day alcohol poisoning or acute barbiturate poisoning.
Experiment [2] concerns animal after a 10-minute stop of blood flow. The following applies: cited from earlier work.
For a further experiment, the target named is SUCNR1 (Homo sapiens, UniProt Q9BXA5). The settings on record: cited from earlier work.

Molecules are shown by their SMILES.

Sequence of SUCNR1 (Q9BXA5 whole entry, species assumed): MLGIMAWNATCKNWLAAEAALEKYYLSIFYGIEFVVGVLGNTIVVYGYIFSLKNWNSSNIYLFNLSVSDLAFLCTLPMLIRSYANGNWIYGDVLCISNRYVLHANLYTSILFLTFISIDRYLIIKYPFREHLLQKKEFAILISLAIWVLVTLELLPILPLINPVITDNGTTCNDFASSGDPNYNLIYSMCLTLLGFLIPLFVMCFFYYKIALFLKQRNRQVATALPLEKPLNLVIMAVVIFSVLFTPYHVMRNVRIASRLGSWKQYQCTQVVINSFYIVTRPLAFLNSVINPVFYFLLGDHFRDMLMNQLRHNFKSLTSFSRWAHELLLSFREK

`O=C(O)CCC(=O)O` [natural conformer of succinic acid, succinic acid]: the severe intoxication result in experiment [1] is on record as “contributes to the prevention of severe intoxication”. For `O=C([O-])CCC(=O)[O-].[Na+].[Na+]` [sodium succinate], in experiment [2] (abdominal injection after the stop of blood flow), the “condition of the central nervous system” value is “not only fails to improve, but can aggravate, the condition of the central nervous system”. Consider `O=C(O)CCC(=O)O` [succinate], for which, on SUCNR1, the “concentration in interstitial fluid and blood sufficient for SUCNR1 activation and HIF dimer stabilization” value is 2.10^−4 mol; the “concentration needed to activate SUCNR1 or to stabilize HIF” value was 150 ± 180 µmol.

Turning to `O=C(O)CCC(=O)O` [succinic acid], the “central nervous system recovery” value in experiment [2] (oral administration) is recorded as “improves the central nervous system's recovery”.
